Source: patent US12577325B2, “Bispecific antibody-camptothecin drug conjugate and pharmaceutical use thereof” (SYSTIMMUNE, INC., priority 2021, dated 2026)

Key:
[1] = system: human lung squamous cell carcinoma cells SK-MES-1; assay: In vitro efficacy (Alamar Blue or MTS, 5 days) in SK-MES-1; assay type: cell-based; conditions: 120 h, SK-MES-1, 5 days
Protocol: (§1) The in vitro efficacy of ADC-coupled drugs was evaluated using an experimental model of two human tumor cell lines (human poorly differentiated lung cancer squamous cell carcinoma cell line Oka-c-1, human lung squamous cell carcinoma cells SK-MES-1).
(§2) Inoculate a certain number of tumor cells in a 96-well plate, add the gradient-diluted test antibody and the corresponding ADC drug to the cells, treat for 5 days, measure the cell viability using Alamar Blue or MTS, and evaluate the inhibitory effect of the test antibody, the ADC and the small molecule drug d3 on the tumor cell lines by calculating the IC50. The starting concentration of the antibody drug was 500 nM, and the dilution was 7-fold, totaling 7 concentration points, and the treatment was carried out for 5 days.

[2] = system: human poorly differentiated lung cancer squamous cell carcinoma cell line Oka-c-1; assay: In vitro efficacy (Alamar Blue or MTS, 5 days) in Oka-c-1; assay type: cell-based; conditions: 120 h, Oka-c-1, 5 days
Protocol: as §1, §2

SMILES: CC[C@@]1(O)C(=O)OCc2c1cc1n(c2=O)Cc2c-1nc1cc(F)c(C)c3c1c2[C@@H](NC(=O)[C@H](C)O)CC3 [d3]
- IC50 [1]: 2.04 nM
- IC50 [2]: 0.846 nM
